Among the data in publication PMC6832503, “Synthesis of Novel Nicotinic Ligands with Multimodal Action: Targeting Acetylcholine α4β2, Dopamine and Serotonin Transporters” (Molecules, 2019) are melting point and Ki values, retold here.

Structures can show the parent of a compound that is named as a salt.

By melting point is commonly meant the temperature of the solid-liquid transition. One may read the Ki as a dissociation constant, usually derived from enzyme kinetics or from competition with a known ligand.

Tested on in the first series: not given
Settings: not given
In the case of `CN1CCC[C@H]1COC(=O)c1cccc(Br)c1` (as salt: hydrochloride) [Compound 4, (S)-(1-Methyl-2-pyrrolidinyl)methyl 3-bromobenzoate], the melting point is 99 to 101.4 °C.

`Cc1ccccc1C(=O)OC[C@@H]1CCCN1C` (as salt: hydrochloride) [Compound 5, (S)-(1-Methyl-2-pyrrolidinyl)methyl 2-methylbenzoate] yielded a melting point of 130.5 to 131.6 °C.

Molecule `CN1CCC[C@H]1COC(=O)c1ccc2ccccc2c1` (as salt: hydrochloride) [Compound 18, (S)-(1-Methyl-2-pyrrolidinyl)methyl 2-naphthoate] had a melting point of 125.5 to 127.1 °C.

`CN1CCCC1CCOC(=O)c1ccccc1` (racemic) (as salt: hydrochloride) [Compound 7, (±)-2-(1-Methyl-2-pyrrolidinyl)ethyl benzoate] gave a melting point of 88.6 to 89.1 °C.

Consider `CN1CCCC1CCOC(=O)c1cccc(F)c1` (racemic) (as salt: hydrochloride) [Compound 8, (±)-2-(1-Methyl-2-pyrrolidinyl)ethyl 3-fluorobenzoate], for which the melting point was 106.8 to 107.5 °C.

Molecule `CN1CCCC1CCOC(=O)c1cccc(Cl)c1` (racemic) (as salt: hydrochloride) [Compound 9, (±)-2-(1-Methyl-2-pyrrolidinyl)ethyl 3-chlorobenzoate] registered a melting point of 144.7 to 146.2 °C.

`CN1CCCC1CCOC(=O)Cc1ccccc1` (racemic) (as salt: hydrochloride) [Compound 16, (±)-2-(-1-Methyl-2-pyrrolidinyl)ethyl 2-phenylacetate] registered a melting point of 86.7 to 87.4 °C.

In turn, `CN1CCCC1CCOC(=O)c1ccc2ccccc2c1` (racemic) (as salt: hydrochloride) [Compound 19, (±)-2-(1-Methyl-2-pyrrolidinyl)ethyl 2-naphthoate] came in with a melting point of 155.6 to 157.4 °C.

`CN1CCCC1CCOC(=O)C(c1ccccc1)c1ccccc1` (racemic) (as salt: hydrochloride) [Compound 21, (±)-2-(-1-Methyl-2-pyrrolidinyl)ethyl 2,2-diphenylacetate] gave a melting point of 115.3 to 117.2 °C.

The target of the next series is T1, α4β2 nAChR (Rattus norvegicus, UniProt P09483+P12390).
T1 construct: the rat complete brain P1 fraction (occupying 2 mg of wet tissue for each assay); from tissue; host or cells: whole rat brain, synaptosome pellet (fraction P1)
T1 sequence (P09483 31-630): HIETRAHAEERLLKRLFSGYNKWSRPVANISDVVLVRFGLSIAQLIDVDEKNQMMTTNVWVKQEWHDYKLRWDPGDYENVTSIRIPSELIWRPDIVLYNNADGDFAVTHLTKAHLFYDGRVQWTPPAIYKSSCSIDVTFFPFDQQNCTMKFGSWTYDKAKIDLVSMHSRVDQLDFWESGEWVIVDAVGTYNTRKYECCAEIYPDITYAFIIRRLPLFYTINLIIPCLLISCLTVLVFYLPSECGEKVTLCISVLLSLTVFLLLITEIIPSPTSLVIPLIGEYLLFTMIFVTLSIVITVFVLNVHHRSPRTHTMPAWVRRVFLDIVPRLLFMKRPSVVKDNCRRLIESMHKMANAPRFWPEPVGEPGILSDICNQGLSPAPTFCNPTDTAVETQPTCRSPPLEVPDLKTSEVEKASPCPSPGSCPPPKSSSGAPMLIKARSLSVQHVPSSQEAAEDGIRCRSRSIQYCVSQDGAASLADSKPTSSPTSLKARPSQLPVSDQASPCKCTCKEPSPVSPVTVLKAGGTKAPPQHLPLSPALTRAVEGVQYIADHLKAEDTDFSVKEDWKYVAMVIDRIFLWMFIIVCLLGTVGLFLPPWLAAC
T1 sequence (P12390 25-500): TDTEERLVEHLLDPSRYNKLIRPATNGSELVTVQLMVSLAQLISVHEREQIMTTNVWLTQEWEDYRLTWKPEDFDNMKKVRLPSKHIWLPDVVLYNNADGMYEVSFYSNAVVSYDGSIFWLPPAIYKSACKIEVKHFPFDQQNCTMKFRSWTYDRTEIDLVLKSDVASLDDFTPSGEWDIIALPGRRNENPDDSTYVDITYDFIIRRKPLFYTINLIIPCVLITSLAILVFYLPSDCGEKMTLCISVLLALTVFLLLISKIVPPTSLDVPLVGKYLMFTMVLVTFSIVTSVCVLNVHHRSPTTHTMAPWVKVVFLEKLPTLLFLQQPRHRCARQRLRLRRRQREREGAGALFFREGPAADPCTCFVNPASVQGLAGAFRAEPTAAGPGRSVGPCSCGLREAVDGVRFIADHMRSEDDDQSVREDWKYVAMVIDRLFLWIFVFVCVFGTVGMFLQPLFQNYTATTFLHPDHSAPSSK
Particulars: bupropion included as comparative value, not used in the trial; cited from earlier work.
Regarding `CC(NC(C)(C)C)C(=O)c1cccc(Cl)c1` (stereo not shown) [Bupropion], the Ki is 10 µM.
